Patent publication EP0175180A1, “Histargin-related compounds, a process for their preparation and their use as medicaments” (MICROBIAL CHEMISTRY RESEARCH FOUNDATION, priority 1984, dated 1986)

Tests used:
[1] = target: T1, carboxypeptidase B (Sus scrofa, UniProt P09955); assay: Inhibition of the action of carboxypeptidase B; format: biochemical; conditions: carboxypeptidase B purified from swine pancreas, 37°C, 30 minutes, pH 8.0; read-out: CP-B inhibition IC50 (converted)
T1 construct: carboxypeptidase B purified from swine pancreas; purchased C; F. Boehringer & Soehne GmbH, Mannheim; host or cells: swine pancreas
T1 sequence (P09955 111-416): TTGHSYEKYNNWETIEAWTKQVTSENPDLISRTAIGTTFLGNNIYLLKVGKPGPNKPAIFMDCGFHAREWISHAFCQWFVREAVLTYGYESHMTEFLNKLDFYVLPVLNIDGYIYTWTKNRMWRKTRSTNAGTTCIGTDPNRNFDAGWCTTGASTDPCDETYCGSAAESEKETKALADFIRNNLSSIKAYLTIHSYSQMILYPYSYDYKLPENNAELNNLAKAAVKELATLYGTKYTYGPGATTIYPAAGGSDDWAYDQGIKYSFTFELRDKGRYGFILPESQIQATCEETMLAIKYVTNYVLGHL
Procedure: The inhibition of the action of carboxypeptidase B was determined by an improved version of the method for determination of the activity of angiotensin converting enzyme described in M. Hayakari et al., Analytical Biochemistry, 84, 361 - 369 (1978). The method proceeds as follows: A mixture of 0.05 mℓ of 0.05 M fibril-L-lysine (prepared by Tanpakushitsu Kenkyu Shoreikai) with 0.25 mℓ of 0.05 M Tris-HCℓ buffer solution (pH 8.0) and 0.15 mℓ of a solution containing a test compound was heated at 37°C for 3 minutes. To the heated solution, 0.05 mℓ of an aqueous solution containing 1 ug/mℓ of carboxypeptidase B purified from swine pancreas (product of C. F. Boehringer G Sohne GmbH, Mannheim) and 1 mg/mℓ of bovine albumin was added, and the mixture was subjected to reaction at 37°C for 30 minutes. The reaction was quenched by adding 0.03 mℓ of 1 N caustic soda. Fifteen minutes later, 2 mℓ of 0.05 M sodium phosphate buffer solution (pH 7.2) was added to the reaction mixture, and color reaction was performed by addition of 2 mℓ of 1% cyanuric chloride in methyl cellosolve. The mixture was left at room temperature for 15 minutes and the absorbance (a) at 382 nm was measured. The absorbance (b) of a control containing no test compound was also measured by repeating the same procedure. Blank tests were also conducted to determine the corresponding absorbances (a') and (b').
In each blank teat, the color reaction was performed by adding the enzyme solution after caustic soda so that no enzymatic reaction would take place. The percent inhibition of the action of carboxypeptidase B was calculated by the formula: [formula]

[2] = target: T2, carboxypeptidase A (Bos taurus, UniProt P00730); assay: Inhibition of the action of carboxypeptidase A; format: biochemical; conditions: carboxypeptidase A purified from bovine pancreas, 37°C, 30 minutes, pH 7.5; read-out: CP-A inhibition IC50 (converted)
T2 construct: carboxypeptidase A purified from bovine pancreas; purchased Sigma Chemical Co; host or cells: bovine pancreas
T2 sequence (P00730 111-419): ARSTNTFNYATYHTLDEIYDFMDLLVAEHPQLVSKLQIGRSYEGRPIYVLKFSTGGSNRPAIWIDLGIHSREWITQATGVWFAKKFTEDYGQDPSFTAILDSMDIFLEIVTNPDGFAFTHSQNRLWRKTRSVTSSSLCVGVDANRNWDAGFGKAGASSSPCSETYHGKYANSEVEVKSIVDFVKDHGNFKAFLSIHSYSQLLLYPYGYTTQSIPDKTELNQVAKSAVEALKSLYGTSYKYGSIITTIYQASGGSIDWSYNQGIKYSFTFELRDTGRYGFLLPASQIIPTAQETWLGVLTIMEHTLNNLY
Procedure: (2) Inhibition of the action of carboxypeptidase A The inhibition of the action of carboxypeptidase A was determined by the method described in T. Tanaka et al., The Journal of Antibiotics, 37, 682 - 684 (1984). The method proceeds as follows: A mixture of 0.05 mℓ of 0.01 M fibril-L-phenylalanine (product of Sigma Chemical Co.) with 0.25 mℓ of 0.05 M Tris-HCℓ buffer solution (pH 7.5) containing 0.9 M NaCℓ. and 0.15 mℓ of a solution containing a teat compound was heated at 37°C for 3 minutes. To the heated solution, 0.05 mℓ of a diluted aqueous solution of carboxypeptidase A purified from bovine pancreas (product of Sigma Chemical Co.) which also contained 1 mg/mℓ of purified bovine albumin was added and the mixture was enbjected to reaction at 37°C for 30 minutes. The reaction was quenched by adding 0.03 mℓ of 1 M caustic soda. Fifteen minutes later, 2 mℓ of 0.06 M sodium phosphate buffer solution (pH 7.2) was added to the reaction mixture, and color reaction was performed by addition of 2 mℓ of 1% cyanuric chloride in methyl cellosolve. The mixture was left at room temperature for 15 minutes and the absorbance (a) at 382 nm was measured. The absorbance (b) of a control containing no test compound was also measured by repeating the same procedure. Blank tests were also conducted to determine the corresponding absorbances (a') and (b'). In each blank test, the color reaction was performed by adding the enzyme solution after caustic soda so that no enzymatic reaction would take place. The percent inhibition of the action of carboxypeptidase A was calculated by the formula: [formula]

[3] = target: T3, angiotensin converting enzyme (Bos taurus, UniProt P12820); assay: Inhibition of the action of angiotensin converting enzyme; format: biochemical; conditions: enzyme partially purified from a bovine lung, 37°C, 30 minutes; read-out: IC50 (50% inhibition concentration) (converted)
T3 construct: angiotensin converting enzyme partially purified from a bovine lung; from tissue; host or cells: bovine lung
T3 sequence (P12820 29-1306): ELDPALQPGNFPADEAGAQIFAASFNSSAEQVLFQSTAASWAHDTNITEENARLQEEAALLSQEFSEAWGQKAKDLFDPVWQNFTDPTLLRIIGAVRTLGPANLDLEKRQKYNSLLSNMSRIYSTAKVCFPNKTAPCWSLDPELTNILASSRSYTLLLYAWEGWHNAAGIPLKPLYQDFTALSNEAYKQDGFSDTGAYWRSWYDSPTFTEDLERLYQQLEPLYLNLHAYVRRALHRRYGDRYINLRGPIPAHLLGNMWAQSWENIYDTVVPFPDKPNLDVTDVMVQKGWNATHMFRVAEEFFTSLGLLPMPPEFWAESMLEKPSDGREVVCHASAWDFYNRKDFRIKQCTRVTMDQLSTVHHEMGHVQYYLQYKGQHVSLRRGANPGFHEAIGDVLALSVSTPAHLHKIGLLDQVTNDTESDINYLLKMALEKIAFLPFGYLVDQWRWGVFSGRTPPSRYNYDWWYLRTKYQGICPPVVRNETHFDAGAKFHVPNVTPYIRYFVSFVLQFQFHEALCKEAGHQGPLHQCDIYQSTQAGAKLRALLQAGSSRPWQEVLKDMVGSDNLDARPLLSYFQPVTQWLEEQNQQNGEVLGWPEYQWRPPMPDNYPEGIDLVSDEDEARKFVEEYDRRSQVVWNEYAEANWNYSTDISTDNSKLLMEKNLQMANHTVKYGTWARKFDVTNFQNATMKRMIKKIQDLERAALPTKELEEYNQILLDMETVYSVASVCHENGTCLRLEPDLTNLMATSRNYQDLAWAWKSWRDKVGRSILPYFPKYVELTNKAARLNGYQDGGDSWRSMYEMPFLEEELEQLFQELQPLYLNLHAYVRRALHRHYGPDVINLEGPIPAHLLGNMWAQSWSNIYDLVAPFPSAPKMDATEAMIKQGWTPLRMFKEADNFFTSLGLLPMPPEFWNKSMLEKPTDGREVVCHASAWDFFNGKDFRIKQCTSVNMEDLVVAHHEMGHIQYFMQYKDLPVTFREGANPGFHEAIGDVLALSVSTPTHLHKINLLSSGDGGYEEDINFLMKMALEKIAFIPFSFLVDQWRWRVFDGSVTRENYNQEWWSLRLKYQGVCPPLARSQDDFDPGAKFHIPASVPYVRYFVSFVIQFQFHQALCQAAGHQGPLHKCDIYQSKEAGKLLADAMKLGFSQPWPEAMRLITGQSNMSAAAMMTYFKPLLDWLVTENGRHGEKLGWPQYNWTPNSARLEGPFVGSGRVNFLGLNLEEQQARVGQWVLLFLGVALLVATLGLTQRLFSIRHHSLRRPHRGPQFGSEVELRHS
Procedure: The inhibition of the action of angiotensin converting enzyme was determined by an inproved version of the method for determination of the activity of angiotensin converting enzyme described in M. Hayakari et al., Analytical Biochemistry, 84, 361 - 369 (1978). The method proceeds as follows: Substrate fibril-L-histidyl-L-leucine was dissolved at a concentration of 5 mg/mt in Tris-HCℓ buffer solution (0.5 M, pH 8.0) containing 0.3 M NaCℓ. A mixture of this solution (0.05 mℓ) and 0.40 mℓ of a solution containing a test compound was heated at 37°C for 3 minutes. To the heated solution, 0.05 ml of a solution containing angiotensin converting enzyme partially purified from a bovine lung was added, and the mixture was subjected to reaction at 37°C for 30 minutes. The reaction was quenched by adding 0.03 mℓ of 1 N caustic soda. […] The mixture was left at room temperature for 15 minutes and the absorbance (a) at 382 nm was measured. The absorbance (b) of a control containing no test compound was also measured by repeating the same procedure. Blank tests were also conducted to determine the corresponding absorbances (a') and (b'). […] The percent inhibition of the action of angiotensin converting enzyme was calculated by the formula: [formula]

[4] = tested on: rats; assay: Acute toxicity test by intraperitoneal administration; format: in vivo
Text: Each of the compounds in accordance with the present invention has low toxicity and can safely be used as a medicine. The results of an acute toxicity test conducted by intraperitoneal administration of rats with compound Nos. la to 5a are summarized in Table 5.

[5] = intraperitoneal administration, rats, dose stated in each result

Row | SMILES | IC50 [1] [µM] | IC50 [2] [µM] | IC50 [3] [µM] | Test results (acute toxicity) ([4]; rat, in vivo, ip) | Test results (acute toxicity) [4, 5]
1 | O=C(O)[C@H](Cc1c[nH]cn1)NCCN[C@@H](Cc1c[nH]cn1)C(=O)O [1a, L-His-C2-L-His] | 178 | > 595 | 2.08 | No toxicity observed upon administration of 400 mg/kg. | –
2 | O=C(O)[C@H](Cc1ccccc1)NCCN[C@@H](Cc1c[nH]cn1)C(=O)O [2a, L-His-C2-L-Phe] | 185 | 24.3 | – | – | No toxicity observed upon administration of 100 mg/kg.
3 | NCCCC[C@H](NCCN[C@@H](Cc1c[nH]cn1)C(=O)O)C(=O)O [3a, L-His-C2-L-Lys] | > 611 | > 611 | – | – | No toxicity observed upon administration of 400 mg/kg.
4 | O=C(O)[C@H](Cc1c[nH]cn1)NCCN1CCC[C@H]1C(=O)O [4a, L-His-C2-L-Pro] | > 675 | > 675 | – | – | No toxicity observed upon administration of 400 mg/kg.
5 | O=C(O)C[C@H](NCCN[C@@H](Cc1c[nH]cn1)C(=O)O)C(=O)O [5a, L-His-C2-L-Asp] | > 636 | > 636 | 1.59 | No toxicity observed upon administration of 400 mg/kg. | –
6 | NCCC[C@H](NCCN[C@@H](Cc1c[nH]cn1)C(=O)O)C(=O)O [6a, L-His-C2-L-Orn] | 357 | > 638 | – | – | –
7 | CCOC(=O)[C@H](Cc1ccccc1)NCCN[C@@H](Cc1c[nH]cn1)C(=O)O [7a, L-His-C2-L-Phe-OEt] | > 534 | 390 | – | – | –
